According to US8415376B2, “Inhibitors of PI3 kinase” (Amgen Inc., priority 2008, dated 2013):

Key:
[1] = target: T1, PI3Kα (Homo sapiens, UniProt P42336); assay: In vitro PI3 kinase enzyme assay (PI3K ATP loss), alpha; type: biochemical; details: average if run more than once; read-out: ATP Loss (PBKα) IC50 μM (Avg)
T1 construct: Full length p110 subunits of PI3K α, β and δ, N-terminally labeled with polyHis tag; polyHis (N); made in house; host or cells: Sf9 insect cells (baculovirus)
Procedure: (§1) Full length p110 subunits of PI3K α, β and δ, N-terminally labeled with polyHis tag, can be co-expressed with p85 with Baculo virus expression vectors in sf9 insect cells. P110/p85 heterodimers can be purified by sequential Ni-NTA, Q-HP, Superdex-100 chromatography. Purified α, β and δ isozymes can be stored at −20° C. in 20 mM Tris, pH 8, 0.2M NaCl, 50% glycerol, 5 mM DTT, 2 mM Na cholate. […] The γ isozyme can be purified by sequential Ni-NTA, Superdex-200, Q-HP chromatography. The γ isozyme can be stored frozen at −80° C. in NaH2PO4, pH 8, 0.2M NaCl, 1% ethylene glycol, 2 mM β-mercaptoethanol.
(§2) In Vitro PI3 Kinase Enzyme Assays (PI3K Atploss)
(§3) PI3K enzyme assays (alpha, beta, delta and gamma) can be performed in 25 μL with the above final concentrations of components in white polyproplyene plates. Phosphatidyl inositol phosphoacceptor, PtdIns(4,5)P2 (eg. P4508) can be obtained from Echelon Biosciences, Salt Lake City, Utah. […] Test compounds can be dissolved in DMSO and diluted with three-fold serial dilutions. The compound in DMSO (1 μL) may be added per test well, and the inhibition relative to reactions containing no compound, with and without enzyme can be determined After assay incubation at RT, the reaction can be stopped and residual ATP can be determined by addition of an equal volume of a commercial ATP bioluminescence kit (Perkin Elmer EasyLite, Perkin Elmer, Waltham, Mass.) according to the manufacturer's instructions, and detected using an Analyst GT luminometer.

[2] = target: T2, PI3Kβ (Homo sapiens, UniProt P42338); assay: In vitro PI3 kinase enzyme assay (PI3K ATP loss), beta; type: biochemical; details: average if run more than once
T2 construct: Full length p110 subunits of PI3K α, β and δ, N-terminally labeled with polyHis tag; polyHis (N); made in house; host or cells: Sf9 insect cells (baculovirus)
T2 sequence (P42338 whole entry): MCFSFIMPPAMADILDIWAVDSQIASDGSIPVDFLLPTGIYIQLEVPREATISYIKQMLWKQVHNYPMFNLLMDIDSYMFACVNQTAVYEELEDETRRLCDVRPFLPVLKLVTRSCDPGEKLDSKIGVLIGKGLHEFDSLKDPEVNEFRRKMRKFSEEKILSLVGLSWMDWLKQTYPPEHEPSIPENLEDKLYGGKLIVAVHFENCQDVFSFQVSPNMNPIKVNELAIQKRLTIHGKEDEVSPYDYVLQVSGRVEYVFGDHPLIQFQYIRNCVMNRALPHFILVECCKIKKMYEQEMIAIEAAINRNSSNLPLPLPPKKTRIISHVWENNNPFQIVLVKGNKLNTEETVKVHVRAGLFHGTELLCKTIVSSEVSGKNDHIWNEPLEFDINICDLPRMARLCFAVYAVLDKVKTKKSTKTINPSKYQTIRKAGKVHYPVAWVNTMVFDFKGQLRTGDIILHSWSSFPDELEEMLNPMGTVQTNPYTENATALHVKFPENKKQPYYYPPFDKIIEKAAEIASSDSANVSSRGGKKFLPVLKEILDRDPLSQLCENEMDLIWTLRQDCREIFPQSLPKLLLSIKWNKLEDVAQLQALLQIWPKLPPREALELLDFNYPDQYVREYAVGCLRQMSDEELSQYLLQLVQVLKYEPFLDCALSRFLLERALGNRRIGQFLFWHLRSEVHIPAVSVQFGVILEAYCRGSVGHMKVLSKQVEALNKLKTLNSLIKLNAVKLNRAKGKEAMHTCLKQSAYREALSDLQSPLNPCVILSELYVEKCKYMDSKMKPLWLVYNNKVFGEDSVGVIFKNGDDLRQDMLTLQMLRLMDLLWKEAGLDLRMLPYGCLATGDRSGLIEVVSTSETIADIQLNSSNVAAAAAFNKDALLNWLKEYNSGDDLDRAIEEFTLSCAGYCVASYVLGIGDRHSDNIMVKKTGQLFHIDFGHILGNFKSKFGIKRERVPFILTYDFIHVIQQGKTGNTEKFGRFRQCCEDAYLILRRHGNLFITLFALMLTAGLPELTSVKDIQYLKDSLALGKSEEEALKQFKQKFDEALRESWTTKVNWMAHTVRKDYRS
T2 sequence (P27986 whole entry partner): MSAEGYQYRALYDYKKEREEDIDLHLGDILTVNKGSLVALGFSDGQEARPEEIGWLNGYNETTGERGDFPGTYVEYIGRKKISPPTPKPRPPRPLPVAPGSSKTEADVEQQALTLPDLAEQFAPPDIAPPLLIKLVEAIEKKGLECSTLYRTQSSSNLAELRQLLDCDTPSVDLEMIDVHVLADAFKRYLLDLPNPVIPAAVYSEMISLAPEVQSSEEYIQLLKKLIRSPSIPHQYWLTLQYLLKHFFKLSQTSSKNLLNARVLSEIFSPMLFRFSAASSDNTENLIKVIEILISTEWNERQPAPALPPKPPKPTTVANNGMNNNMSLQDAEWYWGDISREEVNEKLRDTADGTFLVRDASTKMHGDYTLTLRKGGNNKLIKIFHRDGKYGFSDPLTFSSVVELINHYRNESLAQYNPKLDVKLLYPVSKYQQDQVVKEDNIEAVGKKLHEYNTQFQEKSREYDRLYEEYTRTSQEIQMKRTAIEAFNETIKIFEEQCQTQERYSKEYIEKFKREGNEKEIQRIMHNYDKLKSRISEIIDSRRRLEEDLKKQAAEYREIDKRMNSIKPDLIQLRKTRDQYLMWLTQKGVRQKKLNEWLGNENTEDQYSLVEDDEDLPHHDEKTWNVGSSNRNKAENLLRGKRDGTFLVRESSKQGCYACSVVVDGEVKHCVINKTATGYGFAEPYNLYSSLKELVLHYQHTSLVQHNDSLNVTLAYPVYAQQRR
Procedure: as §1, §2, §3

[3] = system: phosphorylation of Akt at Ser473; assay: Cell-based phospho-Akt Ser473 assay (HCT116 cell); details: HCT 116 human colon carcinoma cells, IGF-1 stimulated; average
Excerpt: Cell-Based Phospho-Akt Ser473 Assay (HCT116 Cell)
This assay determines the ability of a compound to inhibit the phosphorylation of […] in Akt using a MSD based sandwich immunoassay (Meso Scale Detection, Meso Scale Discovery (MSD), Gaithersburg, Md.). HCT 116 human colon carcinoma cell lines can be grown in McCoy's 5A growth medium (GIBCO, Carlsbad, Calif.) containing 10% FBS (GIBCO, Carlsbad, Calif.) and X1 Penicillin-streptomycin-glutamine (GIBCO, Carlsbad, Calif.). Prior to the assay, cells can be detached from the culture flask with trypsin, and re-suspended in complete media to give a final concentration of 1.6×10^5 cells per mL. Aliquots (100 μl) of the HCT116 cell suspension can be seeded into each well of a 96 well tissue culture plate to give a final density of 16,000 cells per well. Cells can then be incubated overnight at 37° C.
The following day the cells can be treated with serially diluted test compounds and incubated for 2 hours at 37° C. The culture media on the HCT 116 cells can be replaced with 189 μL McCoys media, supplemented with 0.1% BSA (ICN Biomedicals, Inc., Costa Mesa, Calif.). Compounds can be prepared as either 10 mM or 0.5 mM stock solutions in DMSO, and serially diluted 3 fold in a 10-point dose-response curve to give final concentrations that are 200-fold greater than the desired final test concentration. Aliquots (1 μL) of serially-diluted compounds can be transferred to 96 well tissue culture plates containing the HCT 116 cells. […] As a maximum response control, wells can contain 0.5% DMSO in place of compound. The plates can be mixed at 700 rpm for 2 min to ensure even distribution of the test compound and incubated for 2 hours at 37° C. Cells can then be stimulated with insulin-like growth factor 1 (Sigma, St Louis, Mo.) at final concentration of 100 ng/ml for 15 minutes at 37° C. The media can then be removed and the cells treated with 80 μL cell-lysis buffer (MSD) containing a cocktail of protease and phosphatase inhibitors for one hour at 4° C.
25 μL Cell lysate can then be transferred to pre-blocked MSD assay plates pre-coated with a capture antibody specific for Akt, and the plates can be incubated for 2 hours at room temperature. The cell lysates can then be removed and plates can then be washed four times with 200 μl per well of Tris wash buffer (500 mM Tris, PH 7.5, 1.5 M NaCl, 0.2% Tween-20). Subsequently cells can be incubated for 1 hour at room temperature with a 25 μL solution containing the detection antibody, anti-phospho Akt (Ser 473) labeled with an electrochemiluminescent compound (Meso Scale Discovery SULPHO-TAG™ label, MSD, Gaithersburg, Md.). The detection antibody can be removed and plates can then be washed four times with 200 μL per well of Tris wash buffer. An aliquot of 150 μL of diluted MSD read buffer can then be applied to each well, and the electrochemiluminescent signal can be measured using a MSD SECTOR™ plate reader (Meso Scale Discovery, Gaithersburg, Md.). This instrument measures the intensity of emitted light to determine a quantitative measure of phosphorylated Akt in each well. The dose-response data obtained with each compound can be analyzed and the IC50 inhibition of Akt phosphorylation at Ser473 can be calculated.
Activity data for the compounds tested in the PI3K cell based Akt assay is provided in Table 1 under the column heading HCT116 Cell.

T1 sequence (P42336 whole entry): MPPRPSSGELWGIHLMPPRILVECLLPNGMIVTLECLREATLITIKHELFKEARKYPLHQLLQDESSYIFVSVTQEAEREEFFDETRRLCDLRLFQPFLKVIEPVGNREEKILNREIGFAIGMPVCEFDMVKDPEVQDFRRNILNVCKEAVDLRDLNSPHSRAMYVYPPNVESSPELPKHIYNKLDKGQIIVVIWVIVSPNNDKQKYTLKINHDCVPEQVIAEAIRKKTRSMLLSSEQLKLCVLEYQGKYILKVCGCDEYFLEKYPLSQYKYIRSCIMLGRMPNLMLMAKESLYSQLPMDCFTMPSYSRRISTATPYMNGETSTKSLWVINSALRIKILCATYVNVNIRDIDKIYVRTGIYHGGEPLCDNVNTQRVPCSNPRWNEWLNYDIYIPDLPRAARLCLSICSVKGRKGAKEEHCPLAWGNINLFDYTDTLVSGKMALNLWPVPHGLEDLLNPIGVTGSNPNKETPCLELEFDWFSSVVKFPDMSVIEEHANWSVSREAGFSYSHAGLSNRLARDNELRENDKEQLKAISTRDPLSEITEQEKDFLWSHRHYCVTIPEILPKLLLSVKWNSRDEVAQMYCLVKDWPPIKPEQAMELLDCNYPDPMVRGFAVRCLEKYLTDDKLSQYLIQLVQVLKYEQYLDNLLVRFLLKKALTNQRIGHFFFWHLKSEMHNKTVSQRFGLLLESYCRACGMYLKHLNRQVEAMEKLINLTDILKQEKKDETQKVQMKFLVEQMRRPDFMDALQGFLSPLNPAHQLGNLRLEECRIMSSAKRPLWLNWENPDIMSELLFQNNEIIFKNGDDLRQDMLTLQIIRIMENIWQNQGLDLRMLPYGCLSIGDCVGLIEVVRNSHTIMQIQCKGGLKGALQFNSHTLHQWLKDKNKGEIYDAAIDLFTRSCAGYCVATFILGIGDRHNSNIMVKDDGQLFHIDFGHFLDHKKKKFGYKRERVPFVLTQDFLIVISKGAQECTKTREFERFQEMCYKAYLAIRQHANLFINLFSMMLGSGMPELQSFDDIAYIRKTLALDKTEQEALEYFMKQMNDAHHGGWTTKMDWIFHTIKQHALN
T1 sequence (P27986 whole entry partner): as the sequence (P27986 whole entry partner) above

| Compound | IC50 [1] [µM] | IC50 [2] [µM] | IC50 [3] [µM] |
| --- | --- | --- | --- |
| COc1cnc2ccc(-c3cnc(Cl)c(NS(C)(=O)=O)c3)cc2c1 [Example 10, N-(2-chloro-5-(3-methoxy-6-quinolinyl)-3-pyridinyl)methanesulfonamide] | 0.0424 | 0.166 | 0.348 |
| CN(C)c1cc(-c2ccc3ncccc3c2)cnc1Cl [Example 13, 2-chloro-N,N-dimethyl-5-(6-quinolinyl)-3-pyridinamine] | 1.12 | – | – |
| O=S(=O)(Nc1cc(-c2ccc3nccc(N4CCC(O)C4)c3c2)cnc1Cl)c1ccc(F)cc1 (stereo not shown) [Example 26, N-(2-chloro-5-(4-(3-hydroxy-1-pyrrolidinyl)-6-quinolinyl)-3-pyridinyl)-4-fluorobenzenesulfonamide] | 0.0111 | 0.0778 | 2.96 |
| OCc1cc(-c2ccc3nccc(N4CCOCC4)c3c2)cnc1Cl [Example 14, (2-chloro-5-(4-(4-morpholinyl)-6-quinolinyl)-3-pyridinyl)methanol] | 1.13 | 5.42 | – |
| O=S(=O)(Nc1cc(-c2ccc3nccc(N4CCN(Cc5ccccc5)CC4)c3c2)cnc1Cl)c1ccc(F)cc1 [Example 28, N-(5-(4-(4-benzyl-1-piperazinyl)-6-quinolinyl)-2-chloro-3-pyridinyl)-4-fluorobenzenesulfonamide] | 0.0062 | 0.0339 | – |
| O=S(=O)(Nc1cc(-c2ccc3nccc(N4CCOCC4)c3c2)cnc1Cl)c1ccccc1F [Example 32, N-(2-chloro-5-(4-(4-morpholinyl)-6-quinolinyl)-3-pyridinyl)-2-fluorobenzenesulfonamide] | 0.005 | 0.0248 | 0.0117 |
| O=S(=O)(Nc1cc(-c2ccc3cccnc3c2)cnc1Cl)c1ccc(F)cc1 [Example 18, N-(2-chloro-5-(7-quinolinyl)-3-pyridinyl)-4-fluorobenzenesulfonamide] | 1.97 | 7.7 | – |
| CC(=O)OCc1cc(-c2ccc3nccc(N4CCOCC4)c3c2)cnc1Cl [Example 15, (2-chloro-5-(4-(4-morpholinyl)-6-quinolinyl)-3-pyridinyl)methyl acetate] | 1.39 | 3.67 | – |
| NCc1cc(-c2ccc3nccc(N4CCOCC4)c3c2)cnc1Cl [Example 16, 1-(2-chloro-5-(4-(4-morpholinyl)-6-quinolinyl)-3-pyridinyl)methanamine] | 3.53 | 26.7 | – |
| O=S(=O)(Nc1cc(-c2ccc3nnccc3c2)cnc1Cl)c1ccc(F)cc1 [Example 37, N-(2-chloro-5-(6-cinnolinyl)-3-pyridinyl)-4-fluorobenzenesulfonamide] | 0.0783 | 0.212 | – |
| CC(C)(C)C(=O)NCc1cc(-c2ccc3nccc(N4CCOCC4)c3c2)cnc1Cl [Example 17, N-((2-chloro-5-(4-(4-morpholinyl)-6-quinolinyl)-3-pyridinyl)methyl)-2,2-dimethylpropanamide] | 3.11 | 27.4 | – |
| O=S(=O)(Nc1cc(-c2cccc3cnncc23)cnc1Cl)c1ccc(F)cc1 [Example 39, N-(2-chloro-5-(5-phthalazinyl)-3-pyridinyl)-4-fluorobenzenesulfonamide] | 1.9 | 4.12 | – |
| CC(C)N1CCN(c2cnc3ccc(-c4cnc(Cl)c(NS(=O)(=O)c5ccc(F)cc5)c4)cc3n2)CC1 [Example 21, N-(2-chloro-5-(3-(4-(1-methylethyl)-1-piperazinyl)-6-quinoxalinyl)-3-pyridinyl)-4-fluorobenzenesulfonamide] | 0.0054 | – | 0.0115 |

The remaining lines, values ahead:

| IC50 [1] [µM] | IC50 [2] [µM] | IC50 [3] [µM] | Compound |
| --- | --- | --- | --- |
| 0.0074 | 0.0151 | 0.273 | COc1ccc(S(=O)(=O)Nc2cc(-c3ccc4nccc(N(C)C)c4c3)cnc2Cl)cc1 [Example 49, N-(2-chloro-5-(4-(dimethylamino)-6-quinolinyl)-3-pyridinyl)-4-methoxybenzenesulfonamide] |
| 0.0954 | 2.49 | – | CNc1ccc2cc(-c3cnc(Cl)c(NS(=O)(=O)c4ccc(OC)cc4)c3)ccc2n1 [Example 48, N-(2-chloro-5-(2-(methylamino)-6-quinolinyl)-3-pyridinyl)-4-methoxybenzenesulfonamide] |
| 0.0192 | 0.0597 | 0.0646 | COc1ccc(S(=O)(=O)Nc2cc(-c3ccc4nc(NC(C)=O)ccc4c3)cnc2Cl)cc1 [Example 45, N-(6-(6-chloro-5-(((4-methoxyphenyl)sulfonyl)amino)-3-pyridinyl)-2-quinolinyl)acetamide] |
| 0.0188 | 0.0934 | 0.0893 | CN(CC#N)c1cnc2ccc(-c3cnc(Cl)c(NS(=O)(=O)c4ccc(F)cc4)c3)cc2n1 [Example 71, N-(2-chloro-5-(3-((cyanomethyl)(methyl)amino)-6-quinoxalinyl)-3-pyridinyl)-4-fluorobenzenesulfonamide] |
| 2.84 | 5.61 | – | O=S(=O)(Nc1cc(-c2cnc3ncccc3c2)cnc1Cl)c1ccc(F)cc1 [Example 44, N-(2-chloro-5-(1,8-naphthyridin-3-yl)-3-pyridinyl)-4-fluorobenzenesulfonamide] |
| 0.0027 | 0.03 | 0.0405 | COC1CCCN(c2cnc3ccc(-c4cnc(Cl)c(NS(=O)(=O)c5ccc(F)cc5)c4)cc3n2)C1 (stereo not shown) [Example 66] |
| 0.0103 | 0.0436 | 0.569 | CC(Nc1cnc2ccc(-c3cnc(Cl)c(NS(=O)(=O)c4ccc(F)cc4)c3)cc2n1)c1ccc(F)cc1 (stereo not shown) [Example 60, N-(2-chloro-5-(3-((1-(4-fluorophenyl)ethyl)amino)-6-quinoxalinyl)-3-pyridinyl)-4-fluorobenzenesulfonamide] |
| 0.0417 | 0.0249 | 0.526 | COc1ccc(S(=O)(=O)Nc2cc(-c3ccc4ncccc4c3)cnc2Cl)cc1 [Example 47, N-(2-chloro-5-(6-quinolinyl)-3-pyridinyl)-4-methoxybenzenesulfonamide] |
| 0.0057 | 0.0318 | 0.0236 | CC(=O)N1CCN(c2cnc3ccc(-c4cnc(Cl)c(NS(=O)(=O)c5ccc(F)cc5)c4)cc3n2)CC1 [Example 56, N-(5-(3-(4-acetyl-1-piperazinyl)-6-quinoxalinyl)-2-chloro-3-pyridinyl)-4-fluorobenzenesulfonamide] |
| 0.0875 | 0.62 | 1.73 | O=S(=O)(Nc1cc(-c2ccnc3cccnc23)cnc1Cl)c1ccc(F)cc1 [Example 42, N-(2-chloro-5-(1,5-naphthyridin-4-yl)-3-pyridinyl)-4-fluorobenzenesulfonamide] |
| 0.179 | 2.46 | – | CN(C)c1cc(-c2ccc3nccc(N4CCOCC4)c3c2)cnc1Cl [Example 51, 2-chloro-N,N-dimethyl-5-(4-(4-morpholinyl)-6-quinolinyl)-3-pyridinamine] |
| 0.294 | 4.22 | – | CC(c1ccccc1)N1CCN(c2ccnc3ccc(-c4cnc(Cl)c(N(C)C)c4)cc23)CC1 (stereo not shown) [Example 53, 2-chloro-N,N-dimethyl-5-(4-(4-(1-phenylethyl)-1-piperazinyl)-6-quinolinyl)-3-pyridinamine] |
| 0.899 | 0.698 | – | O=S(=O)(Nc1cc(-c2ccc3cnncc3c2)cnc1Cl)c1ccc(F)cc1 [Example 40, N-(2-chloro-5-(6-phthalazinyl)-3-pyridinyl)-4-fluorobenzenesulfonamide] |
| 0.43 | 2.24 | – | CN(C)c1cc(-c2ccc3nccc(Cl)c3c2)cnc1Cl [Example 52, 2-chloro-5-(4-chloro-6-quinolinyl)-N,N-dimethyl-3-pyridinamine] |
